# Data as given in patent US11918592B2, “Inhibitors of cyclin dependent kinase 7 (CDK7)” (Syros Pharmaceuticals, Inc., priority 2018, dated 2024).
# How the values were obtained:
# [1] = test system: COV504 cells; experiment: Inhibition of cell proliferation, CyQUANT Direct, COV504; format: cell-based; conditions: Homo sapiens; COV504 ovarian cancer cells, 72-hour; read-out: COV 504 proliferation calculated IC50
# Procedure: (§1) HCC70 and MB453 cells are cell lines derived from human triple negative breast cancer. COV318 and COV504 cells are cell lines derived from human ovarian cancer. Representative compounds of the invention were tested at different concentrations (from 4 μM to 126.4 pM; 0.5 log serial dilutions) for their ability to inhibit the proliferation of each of these cell lines. Known CDK inhibitors dinaciclib or N-((1S,3R)-3-((5-chloro-4-(1H-indol-3-yl) pyrimidin-2-yl)amino)cyclohexyl)-5-((E)-4-(dimethylamino)but-2-enamido)picolinamide and triptolide were used as positive controls. Cells were seeded at approximately 2,000 cells/well and grown in ATCC-formulated RPMI-1640 Medium (ATCC 30-2001)+10% FBS. The cells were cultured at 37° C. in a humidified chamber in the presence of 5% CO2. Proliferation assays were conducted over a 72-hour time period. CyQUANT® Direct Cell Proliferation Assay (Life Technologies, Chicago, IL USA) was used to assess the anti-proliferative effects of the compounds following manufacturer's directions and utilizing the reagents supplied with the CyQUANT® Direct Cell kit.
# [2] = molecular target: CDK9/Cyclin T1 complex (Homo sapiens, UniProt P50750); experiment: CDK9 kinase inhibition assay (Caliper/LabChip EZ Reader)
# Procedure: (§2) Compounds of the invention were assayed for inhibition of CDK7, CDK9, CDK12, and CDK2 activity at Biortus Biosciences (Jiangyin, Jiangsu Province, P.R. of China) using kinase assays for each CDK developed with a Caliper/LabChip EZ Reader (Perkin Elmer, Waltham, MA).
# (§3) Furthermore, the CDK9 inhibition assay used CDK9/Cyclin T1 complex (8 nM) and “5-FAM-CDK9tide” peptide substrate (2 μM, synthesized fluorophore-labeled peptide with the following sequence: 5-FAM-GSRTPMY-NH2 (SEQ ID NO:2) where 5-FAM is defined above and NH2 signifies a C-terminal amide) with 10 mM MgCl2 in the buffer composition listed above. The CDK12 inhibition assay used CDK12 (aa686-1082)/Cyclin K complex (50 nM) and “5-FAM-CDK9tide” (2 μM) as defined above, with 2 mM MgCl2 in the buffer composition above. Additionally, the CDK2 inhibition assay used CDK2/Cyclin E1 complex (0.5 nM) and “5-FAM-CDK7tide” (2 μM) as defined above, with 2 mM MgCl2 in the buffer composition listed above.
# (§4) The incubation period at 27° C. for each CDK inhibition assay was chosen such that the fraction of phosphorylated peptide product produced in each assay, relative to the total peptide concentration, was approximately 20% (±5%) for the uninhibited kinase (35 min. for CDK7, 35 min. for CDK2, 3 hr. for CDK12, 15 min. for CDK9).
# [3] = molecular target: CDK7/Cyclin H/MAT1 complex (Homo sapiens, UniProt P50613); experiment: CDK7 kinase inhibition assay (Caliper/LabChip EZ Reader)
# Procedure: as §2, §3, §4
# [4] = test system: MB453 cells; experiment: Inhibition of cell proliferation, CyQUANT Direct, MB453; format: cell-based, human; conditions: Homo sapiens; MB453 triple negative breast cancer cells, 72-hour; read-out: MB 453 proliferation calculated IC50
# Procedure: as §1
# [5] = molecular target: CDK2/Cyclin E1 complex (Homo sapiens, UniProt P24941); experiment: CDK2 kinase inhibition assay (Caliper/LabChip EZ Reader)
# Procedure: as §2, §3, §4
# [6] = test system: COV318 cells; experiment: Inhibition of cell proliferation, CyQUANT Direct, COV318; format: cell-based; conditions: Homo sapiens; COV318 ovarian cancer cells, 72-hour; read-out: COV 318 proliferation calculated IC50
# Procedure: as §1
# [7] = test system: HCC70 cells; experiment: Inhibition of cell proliferation, CyQUANT Direct, HCC70; format: cell-based, human; conditions: Homo sapiens; HCC70 triple negative breast cancer cells, 72-hour; read-out: HCC 70 proliferation calculated IC50
# Procedure: as §1
# [8] = molecular target: CDK12 (aa686-1082)/Cyclin K complex (Homo sapiens, UniProt Q9NYV4); experiment: CDK12 kinase inhibition assay (Caliper/LabChip EZ Reader)
# Sequence of CDK12 (aa686-1082)/Cyclin K complex (Q9NYV4 686-1082): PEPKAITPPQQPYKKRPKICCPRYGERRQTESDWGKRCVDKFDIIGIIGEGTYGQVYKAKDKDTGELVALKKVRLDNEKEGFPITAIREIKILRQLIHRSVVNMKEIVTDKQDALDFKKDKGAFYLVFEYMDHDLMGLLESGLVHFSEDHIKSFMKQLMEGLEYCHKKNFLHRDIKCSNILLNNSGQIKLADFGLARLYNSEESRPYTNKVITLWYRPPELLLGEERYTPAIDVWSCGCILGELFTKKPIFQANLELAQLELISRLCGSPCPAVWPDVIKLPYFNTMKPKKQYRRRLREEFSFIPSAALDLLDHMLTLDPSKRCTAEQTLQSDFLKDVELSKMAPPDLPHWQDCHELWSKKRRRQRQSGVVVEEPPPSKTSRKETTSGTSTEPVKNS
# Sequence of CDK12 (aa686-1082)/Cyclin K complex (O75909 whole entry partner, the tested form may be a part): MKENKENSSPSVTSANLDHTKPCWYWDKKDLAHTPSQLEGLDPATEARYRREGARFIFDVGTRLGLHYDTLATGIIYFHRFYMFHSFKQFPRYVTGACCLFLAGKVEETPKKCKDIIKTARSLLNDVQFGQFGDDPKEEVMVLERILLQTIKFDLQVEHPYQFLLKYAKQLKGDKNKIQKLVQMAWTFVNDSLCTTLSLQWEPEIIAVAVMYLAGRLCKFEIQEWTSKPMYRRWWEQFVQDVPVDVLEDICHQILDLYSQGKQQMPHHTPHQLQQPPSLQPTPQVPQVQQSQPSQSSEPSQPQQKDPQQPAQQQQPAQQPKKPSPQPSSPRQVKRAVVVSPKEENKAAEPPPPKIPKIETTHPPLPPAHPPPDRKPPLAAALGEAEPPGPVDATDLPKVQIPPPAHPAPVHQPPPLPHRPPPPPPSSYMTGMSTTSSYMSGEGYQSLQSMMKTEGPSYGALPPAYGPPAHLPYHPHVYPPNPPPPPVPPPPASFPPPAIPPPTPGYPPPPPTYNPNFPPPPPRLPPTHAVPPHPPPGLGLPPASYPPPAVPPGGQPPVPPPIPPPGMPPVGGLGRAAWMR
# Procedure: as §2, §3, §4
# Sequence of CDK9/Cyclin T1 complex (P50750 whole entry): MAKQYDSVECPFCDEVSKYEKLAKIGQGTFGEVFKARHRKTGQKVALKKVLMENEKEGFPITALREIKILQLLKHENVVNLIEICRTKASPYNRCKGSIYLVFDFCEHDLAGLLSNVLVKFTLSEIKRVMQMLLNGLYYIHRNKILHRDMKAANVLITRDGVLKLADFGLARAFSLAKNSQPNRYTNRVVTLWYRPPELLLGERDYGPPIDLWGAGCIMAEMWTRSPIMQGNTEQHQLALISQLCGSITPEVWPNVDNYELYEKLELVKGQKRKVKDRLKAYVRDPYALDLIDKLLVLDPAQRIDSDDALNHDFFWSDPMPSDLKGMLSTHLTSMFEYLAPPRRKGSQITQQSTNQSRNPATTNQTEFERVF
# Sequence of CDK9/Cyclin T1 complex (O60563 whole entry partner): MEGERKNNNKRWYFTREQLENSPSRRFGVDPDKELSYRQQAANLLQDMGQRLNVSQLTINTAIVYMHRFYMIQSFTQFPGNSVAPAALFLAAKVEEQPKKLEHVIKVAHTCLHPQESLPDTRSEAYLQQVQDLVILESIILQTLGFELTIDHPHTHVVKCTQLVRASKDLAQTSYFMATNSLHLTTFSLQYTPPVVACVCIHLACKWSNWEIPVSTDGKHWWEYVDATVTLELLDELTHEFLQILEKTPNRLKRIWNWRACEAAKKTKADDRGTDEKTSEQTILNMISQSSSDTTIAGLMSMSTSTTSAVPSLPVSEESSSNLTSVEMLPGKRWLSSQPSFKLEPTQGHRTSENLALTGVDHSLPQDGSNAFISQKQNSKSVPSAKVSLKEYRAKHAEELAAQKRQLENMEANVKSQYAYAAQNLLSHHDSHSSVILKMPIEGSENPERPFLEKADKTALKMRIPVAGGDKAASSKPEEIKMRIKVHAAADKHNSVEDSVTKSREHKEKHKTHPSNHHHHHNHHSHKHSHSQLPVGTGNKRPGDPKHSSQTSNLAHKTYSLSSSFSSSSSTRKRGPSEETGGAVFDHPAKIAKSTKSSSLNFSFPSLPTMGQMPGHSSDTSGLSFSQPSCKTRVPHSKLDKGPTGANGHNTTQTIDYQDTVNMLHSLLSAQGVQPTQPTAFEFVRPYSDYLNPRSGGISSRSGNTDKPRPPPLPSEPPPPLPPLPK
# Sequence of CDK7/Cyclin H/MAT1 complex (P50613 whole entry): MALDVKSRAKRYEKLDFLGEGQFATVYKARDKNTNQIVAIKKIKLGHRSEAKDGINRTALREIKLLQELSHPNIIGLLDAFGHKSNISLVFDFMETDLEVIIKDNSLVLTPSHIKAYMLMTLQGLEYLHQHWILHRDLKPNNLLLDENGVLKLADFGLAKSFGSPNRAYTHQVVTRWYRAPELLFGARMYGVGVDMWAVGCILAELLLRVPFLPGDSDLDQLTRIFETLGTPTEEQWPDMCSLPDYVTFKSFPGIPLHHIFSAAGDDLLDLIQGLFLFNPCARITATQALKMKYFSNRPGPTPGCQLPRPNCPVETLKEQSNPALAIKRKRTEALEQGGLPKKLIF
# Sequence of CDK7/Cyclin H/MAT1 complex (P51946 whole entry partner): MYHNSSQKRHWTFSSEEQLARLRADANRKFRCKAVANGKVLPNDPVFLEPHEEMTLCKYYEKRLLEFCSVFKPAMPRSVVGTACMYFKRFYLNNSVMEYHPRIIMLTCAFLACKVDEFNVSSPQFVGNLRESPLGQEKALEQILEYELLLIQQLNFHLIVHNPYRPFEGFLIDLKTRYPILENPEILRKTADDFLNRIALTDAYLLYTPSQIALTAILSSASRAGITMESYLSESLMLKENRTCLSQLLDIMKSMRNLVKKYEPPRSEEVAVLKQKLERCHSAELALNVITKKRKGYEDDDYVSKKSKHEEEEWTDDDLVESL
# Sequence of CDK7/Cyclin H/MAT1 complex (P51948 whole entry partner): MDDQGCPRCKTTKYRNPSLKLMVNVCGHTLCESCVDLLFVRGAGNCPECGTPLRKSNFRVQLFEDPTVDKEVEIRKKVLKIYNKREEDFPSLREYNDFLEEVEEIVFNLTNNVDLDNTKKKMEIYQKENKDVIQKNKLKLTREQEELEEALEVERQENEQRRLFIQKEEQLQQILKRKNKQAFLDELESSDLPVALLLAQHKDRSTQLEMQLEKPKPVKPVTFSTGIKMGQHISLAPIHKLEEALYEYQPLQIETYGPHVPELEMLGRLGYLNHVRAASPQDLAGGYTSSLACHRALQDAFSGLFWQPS
SMILES,IC50 [1] [nM],IC50 [2] [nM],IC50 [3] [nM],IC50 [4] [nM],IC50 [5] [nM],IC50 [6] [nM],IC50 [7] [nM],IC50 [8] [nM]
"Cc1noc(C)c1-c1ccc2c(-c3nc(N[C@H]4CC[C@@H]4N)ncc3C(F)(F)F)c[nH]c2n1 [Compound 129, (1S,2S)—N2-[4-[6-(3,5-dimethylisoxazol-4-yl)-1H-pyrrolo[2,3-b]pyridin-3-yl]-5-(trifluoromethyl)pyrimidin-2-yl]-cyclobutane-1,2-diamine]",< 100,> 500,< 30,< 100,> 500,100 to 500,100 to 500,> 500
"N[C@H]1CCC[C@@H]1Nc1ncc(C(F)(F)F)c(-c2c[nH]c3cc(-c4nccs4)ccc23)n1 [Compound 117, (1S,2S)—N1-[4-(6-thiazol-2-yl-1H-indol-3-yl)-5-(trifluoromethyl)pyrimidin-2-yl]-cyclopentane-1,2-diamine]",100 to 500,> 500,< 30,100 to 500,> 500,> 2000,100 to 500,> 500
"N[C@H]1CCC[C@@H]1Nc1ncc(C(F)(F)F)c(-c2c[nH]c3c(Cl)c(O)ccc23)n1 [Compound 168, 3-[2-[[(1S,2S)-2-aminocyclopentyl]amino]-5-(trifluoromethyl)pyrimidin-4-yl]-7-chloro-1H-indol-6-ol]",< 100,> 500,< 30,< 100,> 500,100 to 500,100 to 500,> 500
CCO[C@@H]1CNC[C@H]1Nc1ncc(C(F)(F)F)c(-c2c[nH]c3cc(C#N)ccc23)n1 (relative stereo) [Compound 111],> 2000,> 500,100 to 500,> 2000,> 500,> 2000,> 2000,> 500
N#Cc1ccc2c(-c3nc(N[C@H]4CNC[C@@H]4c4ccc(Cl)cc4)ncc3C(F)(F)F)c[nH]c2c1 (relative stereo) [Compound 113],500 to 2000,> 500,> 500,> 2000,> 500,> 2000,> 2000,> 500
"COC1CN([C@@H]2CCC[C@@H]2Nc2ncc(C(F)(F)F)c(-c3c[nH]c4nc(-c5c(C)noc5C)ccc34)n2)C1 [Compound 165, 4-[6-(3,5-dimethylisoxazol-4-yl)-1H-pyrrolo[2,3-b]pyridin-3-yl]-N-[(1S,2R)-2-(3-methoxyazetidin-1-yl)cyclopentyl]-5-(trifluoromethyl)pyrimidin-2-amine]",> 2000,> 500,30 to 100,500 to 2000,> 500,> 2000,> 2000,> 500
"COCCNC1CCC[C@@H]1Nc1ncc(C(F)(F)F)c(-c2c[nH]c3nc(-c4c(C)noc4C)ccc23)n1 (stereo in doubt) [Compound 152, (1S, 2R)—N1-[4-[6-(3,5-dimethylisoxazol-4-yl)-1H-pyrrolo [2,3-b]pyridin-3-yl]-5-(trifluoromethyl)pyrimidin-2-yl]-N2-(2-methoxyethyl)cyclopentane-1,2-diamine]",100 to 500,> 500,< 30,100 to 500,> 500,500 to 2000,100 to 500,> 500
N#Cc1ccc2c(-c3nc(N[C@H]4CC[C@@H]4N4CCOCC4)ncc3C(F)(F)F)c[nH]c2c1 [Compound 130],> 2000,> 500,100 to 500,> 2000,> 500,> 2000,> 2000,> 500
"COCCN[C@H]1CCC[C@@H]1Nc1ncc(C(F)(F)F)c(-c2c[nH]c3cc(C#N)ccc23)n1 [Compound 123, 3-[2-[[(1S,2S)-2-(2-methoxyethylamino)cyclopentyl]-amino]-5-(trifluoromethyl)pyrimidin-4-yl]-1H-indole-6-carbonitrile]",100 to 500,> 500,< 30,100 to 500,> 500,100 to 500,100 to 500,> 500
N#Cc1ccc2c(-c3nc(N[C@H]4CCCC[C@@H]4N)ncc3C(F)(F)F)c[nH]c2c1 [Compound 100],> 2000,> 500,> 500,500 to 2000,> 500,> 2000,> 2000,> 500
CN1CC[C@H](Nc2ncc(C(F)(F)F)c(-c3c[nH]c4cc(C#N)ccc34)n2)C1 [Compound 109],500 to 2000,> 500,100 to 500,500 to 2000,> 500,500 to 2000,500 to 2000,> 500
"Cc1noc(C)c1-c1ccc2c(-c3nc(N[C@H]4CCC[C@H]4N4CC(F)C4)ncc3C(F)(F)F)c[nH]c2n1 [Compound 156, 4-[6-(3,5-dimethylisoxazol-4-yl)-1H-pyrrolo [2,3-b]pyridin-3-yl]-N-[(1S, 2R)-2-(3-fluoroazetidin-1-yl)cyclopentyl]-5-(trifluoromethyl) pyrimidin-2-amine]",100 to 500,> 500,< 30,500 to 2000,> 500,> 2000,100 to 500,> 500
"Cc1noc(C)c1-c1ccc2c(-c3nc(N[C@H]4C[C@H]5CC[N@](CC5)C4)ncc3C(F)(F)F)c[nH]c2n1 [Compound 141, (3S)—N-[4-[6-(3,5-dimethylisoxazol-4-yl)-1H-pyrrolo[2,3-b]pyridin-3-yl]-5-(trifluoromethyl)pyrimidin-2-yl]-1-azabicyclo[3.2.2]nonan-3-amine]",< 100,> 500,< 30,< 100,> 500,< 100,< 100,> 500
"Cc1noc(C)c1-c1ccc2c(-c3nc(N[C@H]4CCC[C@@H]4N4CCCC4)ncc3C(F)(F)F)c[nH]c2c1 [Compound 143, 4-[6-(3,5-dimethylisoxazol-4-yl)-1H-indol-3-yl]-N-[(1S,2S)-2-pyrrolidin-1-ylcyclopentyl]-5-(trifluoromethyl)pyrimidin-2-amine]",< 100,> 500,< 30,< 100,> 500,500 to 2000,100 to 500,> 500
N#Cc1ccc2c(-c3nc(N[C@@H]4CNC[C@@H]4O)ncc3C(F)(F)F)c[nH]c2c1 (relative stereo) [Compound 107],> 2000,> 500,100 to 500,> 2000,> 500,> 2000,> 2000,> 500
"N#Cc1ccc2c(-c3nc(N[C@@H]4C[C@@H]5CC[C@H]4N5)ncc3C(F)(F)F)c[nH]c2c1 [Compound 115, 3-[2-[[(1R,2R,4S)-7-azabicyclo[2.2.1]heptan-3-yl]amino]-5-(trifluoromethyl)pyrimidin-4-yl]-1H-indole-6-carbonitrile]",100 to 500,> 500,30 to 100,100 to 500,> 500,500 to 2000,500 to 2000,> 500
N#Cc1ccc2c(-c3nc(N[C@@H]4CNC[C@H]4F)ncc3C(F)(F)F)c[nH]c2c1 (relative stereo) [Compound 110],500 to 2000,> 500,100 to 500,> 2000,> 500,> 2000,500 to 2000,> 500
"COC1CN([C@H]2CCC[C@@H]2Nc2ncc(C(F)(F)F)c(-c3c[nH]c4nc(-c5c(C)noc5C)ccc34)n2)C1 [Compound 164, 4-[6-(3,5-dimethylisoxazol-4-yl)-1H-pyrrolo[2,3-b]pyridin-3-yl]-N-[(1S,2S)-2-(3-methoxyazetidin-1-yl)cyclopentyl]-5-(trifluoromethyl)pyrimidin-2-amine]",100 to 500,> 500,< 30,100 to 500,> 500,> 2000,100 to 500,> 500
Cc1noc(C)c1-c1ccc2c(-c3nc(N[C@@H]4C[C@@H]5CC[C@H]4N5)ncc3C(F)(F)F)c[nH]c2n1 [Compound 140],< 100,> 500,< 30,< 100,> 500,< 100,< 100,> 500
